Data published in US7183276B2, “Azole compounds” (Takeda Pharmaceutical Company Limited, priority 2002, dated 2007).

system: diabetic neuropathy model (streptozotocin-injected rats); experiment: Motor nerve conduction velocity in STZ diabetic neuropathy model rats; type: in vivo; conditions: male SD rats, STZ 70 mg/kg diabetic neuropathy model; 3 mg/kg orally in 0.5% methyl cellulose; average value ± SD (n = 7–8)
Description: (§1) To 6-week-old male SD rats (CLEA Japan, Inc.) was injected 70 mg/kg body weight of streptozotocin (STZ) from the tail vein to form a diabetic neuropathy model.
(§2) After raising for one month, 3 mg/kg of compound (compound of Example 5 or Example 226) suspended in 0.5% methyl cellulose was orally administered to the rats. For the control group, a 0.5% aqueous methyl cellulose suspension free of the aforementioned compound was administered.
After the completion of the administration, the rats were anesthetized with Nembutal, the body temperature was maintained at a constant level using a hot plate at 37° C. and a desk lamp, needle electrodes were placed on the above-knee region and ankle, stimulated using Neuropack 2 (NIHON KOHDEN CORPORATION) principally at 1.6 mA and the evoked potential was detected from the plantar part. The Motor Nerve Conduction Velocity (MNCV) was calculated from the distance between different electrodes and latency difference of waveforms.

CCOP(=O)(Cc1ccc(NC(=O)CCc2oc(-n3cnc4ccccc43)nc2-c2ccc(Cl)cc2)cc1)OCC [Example 5, 3-[2-(1H-benzimidazol-1-yl)-4-(4-chlorophenyl)-5-oxazolyl]-N-[4-(diethylphosphonomethyl)phenyl]propionamide] and CCOP(=O)(Cc1ccc(NC(=O)CCCc2oc(-n3cnc4ccccc43)nc2-c2ccc(Cl)cc2)cc1)OCC [Example 226, 4-[2-(1H-benzimidazol-1-yl)-4-(4-chlorophenyl)-5-oxazolyl]-N-[(4-diethylphosphonomethyl)phenyl]butanamide] are within error of each other in “MNCV (Motor Nerve Conduction Velocity)” value: 52.7 ± 5.0 m/s for the first, 52.3 ± 2.4 m/s for the second.

system: BDNF; experiment: BDNF content of ischiadic nerve of STZ diabetic neuropathy model rats (sandwich ELISA); type: in vivo; conditions: male SD rats, STZ 70 mg/kg diabetic neuropathy model, 3 mg/kg orally in 0.5% methyl cellulose, ischiadic nerve supernatant, average value ± SD (n = 7–8)
Description: as §1, §2
After the evaluation of the nerve conduction velocity, the ischiadic nerve was taken from the rat, a lysis buffer (0.1M Tris-HCl buffer containing 1M sodium chloride, 2% BSA, 2 mM EDTA, 80 trypsin unit/L of aprotinin, pH 7.6) in a 20-fold amount of the wet weight of ischiadic nerve was added and the mixture was subjected to ultrasonication and centrifugal separation (15,000 rpm, 60 min.), and the BDNF content of the supernatant was measured.
The BDNF content was measured by sandwich ELISA Method using anti-BDNF polyclonal antibody (Promega) and biotinated anti-BDNF antibody (G1641, Promega). The results are shown in [Table 20].

CCOP(=O)(Cc1ccc(NC(=O)CCc2oc(-n3cnc4ccccc43)nc2-c2ccc(Cl)cc2)cc1)OCC [Example 5, 3-[2-(1H-benzimidazol-1-yl)-4-(4-chlorophenyl)-5-oxazolyl]-N-[4-(diethylphosphonomethyl)phenyl]propionamide] and CCOP(=O)(Cc1ccc(NC(=O)CCCc2oc(-n3cnc4ccccc43)nc2-c2ccc(Cl)cc2)cc1)OCC [Example 226, 4-[2-(1H-benzimidazol-1-yl)-4-(4-chlorophenyl)-5-oxazolyl]-N-[(4-diethylphosphonomethyl)phenyl]butanamide] are within error of each other in “BDNF (content of ischiadic nerve)” value: 2.6 ± 0.7 ng/g for the first, 3.6 ± 0.4 ng/g for the second.

system: not given; experiment: not given; conditions: not given

First: CCOP(=O)(Cc1ccc(NC(=O)CCc2oc(-n3cnc4ccccc43)nc2-c2ccc(Cl)cc2)cc1)OCC [Example 5, 3-[2-(1H-benzimidazol-1-yl)-4-(4-chlorophenyl)-5-oxazolyl]-N-[4-(diethylphosphonomethyl)phenyl]propionamide]
Second: CCOP(=O)(OCC)C(F)(F)c1ccc(NC(=O)CCc2oc(-n3cnc4ccccc43)nc2-c2ccc(Cl)cc2)cc1
The melting point of the first is higher: 159 to 160 °C for the first, 155 to 156 °C for the second.

First: CS(=O)(=O)C1CCN(C(=O)CCc2oc(-n3cnc4ccccc43)nc2-c2ccc(Cl)cc2)CC1 [Example 307, 1-{3-[2-(1H-benzoimidazol-1-yl)-4-(4-chlorophenyl)-5-oxazolyl]propanoyl}-4-(methylsulfonyl)piperidine]
Second: COc1ccc(-c2nc(-n3cnc4ccccc43)oc2CCC(=O)N2CCC(O)CC2)cc1 [Example 248, 1-(3-[2-(1H-benzoimidazol-1-yl)-4-(4-methoxyphenyl)-5-oxazolyl]propanoyl)-4-piperidinol]
The melting point of the first is higher: 215 to 216 °C for the first, 161 to 162 °C for the second.

First: NC(=O)CCc1oc(N2CCOCC2)nc1-c1ccc(Cl)cc1 [Example 9, 3-[4-(4-chlorophenyl)-2-(4-morpholinyl)-5-oxazolyl]propionamide]
Second: NC(=O)CCc1oc(N2CCN(c3ccccc3)CC2)nc1-c1ccc(Cl)cc1 [Example 31, 3-[4-(4-chlorophenyl)-2-(4-phenyl-1-piperazinyl)-5-oxazolyl]propionamide]
The melting point of the first is lower: 180 to 181 °C for the first, 187 to 188 °C for the second.

Compared with CCNC(=O)CCCc1oc(-c2ccccc2)nc1-c1ccc(Cl)cc1 [Example 49, N-ethyl-4-[4-(4-chlorophenyl)-2-phenyl-5-oxazolyl]butanamide], NC(=O)c1ccc(NC(=O)CCc2oc(-c3ccccc3)nc2-c2ccc(Cl)cc2)cc1 [Example 66, 4-({3-[4-(4-chlorophenyl)-2-phenyl-5-oxazolyl]propanoyl}amino)benzamide] is higher in melting point: 127 to 128 °C for the first, 268 to 269 °C for the second.

Compared with N#Cc1ccc(NC(=O)CCc2oc(-n3cnc4ccccc43)nc2-c2ccc(Cl)cc2)cc1 [Example 112, 3-[2-(1H-benzimidazol-1-yl)-4-(4-chlorophenyl)-5-oxazolyl]-N-(4-cyanophenyl)propionamide], N#CCc1ccc(NC(=O)CCc2oc(-n3cnc4ccccc43)nc2-c2ccc(Cl)cc2)cc1 [Example 89, 3-[2-(1H-benzimidazol-1-yl)-4-(4-chlorophenyl)-5-oxazolyl]-N-[4-(cyanomethyl)phenyl]propionamide] is lower in melting point: 216 to 217 °C for the first, 212 to 214 °C for the second.

Compared with O=C(CCc1oc(-n2cnc3ccccc32)nc1-c1ccc(Cl)cc1)Nc1cccc(CO)c1 [Example 108, 3-[2-(1H-benzimidazol-1-yl)-4-(4-chlorophenyl)-5-oxazolyl]-N-[3-(hydroxymethyl)phenyl]propionamide], O=C(CCc1oc(-n2cnc3ccccc32)nc1-c1ccc(Cl)cc1)NCc1cccc(Br)c1 [Example 171, 3-[2-(1H-benzimidazol-1-yl)-4-(4-chlorophenyl)-5-oxazolyl]-N-(3-bromobenzyl)propionamide] is lower in melting point: 206 to 207 °C for the first, 181 to 183 °C for the second.

First: CCOP(=O)(Cc1ccc(NC(=O)CCc2oc(-n3ccnc3C)nc2-c2ccc(Cl)cc2)cc1)OCC
Second: CCOP(=O)(Cc1ccc(NC(=O)CCc2oc(-n3ccnc3)nc2-c2ccc(Cl)cc2)cc1)OCC
The melting point of the first is lower: 158 to 159 °C for the first, 196 to 197 °C for the second.

First: COc1ccccc1CNC(=O)CCc1oc(-n2cnc3ccccc32)nc1-c1ccc(Cl)cc1 [Example 133, 3-[2-(1H-benzimidazol-1-yl)-4-(4-chlorophenyl)-5-oxazolyl]-N-(2-methoxybenzyl)propionamide]
Second: O=C(CCc1oc(-n2cnc3ccccc32)nc1-c1ccc(Cl)cc1)NCc1ccccc1 [Example 132, 3-[2-(1H-benzimidazol-1-yl)-4-(4-chlorophenyl)-5-oxazolyl]-N-benzylpropionamide]
The melting point of the first is higher: 210 to 211 °C for the first, 205 to 206 °C for the second.

First: CCOP(=O)(Cc1ccc(NC(=O)CCc2sc(N)nc2-c2ccc(Cl)cc2)cc1)OCC
Second: CCOP(=O)(Cc1ccc(NC(=O)CCc2oc(C)nc2-c2ccc(Cl)cc2)cc1)OCC
The melting point of the first is higher: 177 to 178 °C for the first, 155 to 156 °C for the second.

First: O=C(CCc1oc(-n2cnc3ccccc32)nc1-c1ccc(Cl)cc1)NCc1cc(Cl)ccc1Cl [Example 174, 3-[2-(1H-benzimidazol-1-yl)-4-(4-chlorophenyl)-5-oxazolyl]-N-(2,5-dichlorobenzyl)propionamide]
Second: O=C(CCc1oc(-n2cnc3ccccc32)nc1-c1ccc(Cl)cc1)NCc1ccc(Cl)cc1F [Example 159, 3-[2-(1H-benzimidazol-1-yl)-4-(4-chlorophenyl)-5-oxazolyl]-N-(4-chloro-2-fluorobenzyl)propionamide]
The melting point of the first is higher: 205 to 207 °C for the first, 189 to 191 °C for the second.

First: CCOP(=O)(Cc1ccc(NC(=O)CCCc2oc(N3CCCC3)nc2-c2ccc(Cl)cc2)cc1)OCC
Second: CCOP(=O)(Cc1ccc(NC(=O)CCc2oc(Sc3ncccn3)nc2-c2ccc(Cl)cc2)cc1)OCC
The melting point of the first is lower: 127 to 128 °C for the first, 146 to 147 °C for the second.

Compared with CCOP(=O)(Cc1ccc(NC(=O)CCc2sc(NS(=O)(=O)c3ccccc3)nc2-c2ccc(Cl)cc2)cc1)OCC, N#CCc1ccc(NC(=O)CCCCc2sc(-n3cnc4ccccc43)nc2-c2ccc(Cl)cc2)cc1 [Example 223, 5-[2-(1H-benzimidazol-1-yl)-4-(4-chlorophenyl)-5-thiazolyl]-N-[4-(cyanomethyl)phenyl]pentanamide] is lower in melting point: 213 to 214 °C for the first, 187 to 188 °C for the second.

First: O=C(CCc1oc(-n2cnc3ccccc32)nc1-c1ccc(Cl)cc1)NCc1ccc(F)c(Br)c1 [Example 170, 3-[2-(1H-benzimidazol-1-yl)-4-(4-chlorophenyl)-5-oxazolyl]-N-(3-bromo-4-fluorobenzyl)propionamide]
Second: O=C(CCc1oc(-n2cnc3ccccc32)nc1-c1ccc(Cl)cc1)NCc1ccc(Cl)cc1 [Example 152, 3-[2-(1H-benzimidazol-1-yl)-4-(4-chlorophenyl)-5-oxazolyl]-N-(4-chlorobenzyl)propionamide]
The melting point of the first is higher: 206 to 207 °C for the first, 190 to 191 °C for the second.

Compared with O=C(CCc1oc(-n2cnc3ccccc32)nc1-c1ccc(Cl)cc1)NCc1ccc(-c2ccccc2)cc1 [Example 153, 3-[2-(1H-benzimidazol-1-yl)-4-(4-chlorophenyl)-5-oxazolyl]-N-(4-phenylbenzyl)propionamide], O=C(CCc1oc(-n2cnc3ccccc32)nc1-c1ccc(Cl)cc1)NCc1ccc(F)cc1F [Example 160, 3-[2-(1H-benzimidazol-1-yl)-4-(4-chlorophenyl)-5-oxazolyl]-N-(2,4-difluorobenzyl)propionamide] is lower in melting point: 214 to 216 °C for the first, 190 to 191 °C for the second.

Compared with CN(Cc1ccc(NC(=O)CCc2oc(-n3cnc4ccccc43)nc2-c2ccc(Cl)cc2)cc1)C1CCOCC1 [Example 87, 3-[2-(1H-benzimidazol-1-yl)-4-(4-chlorophenyl)-5-oxazolyl)-N-(4-{[N-methyl-N-(4-tetrahydropyranyl)amino]methyl}phenyl)propionamide], O=C(CCc1oc(-n2cnc3ccccc32)nc1-c1ccc(Cl)cc1)Nc1ccc(C2CCCCC2)cc1 [Example 116, 3-[2-(1H-benzimidazol-1-yl)-4-(4-chlorophenyl)-5-oxazolyl]-N-(4-cyclohexylphenyl)propionamide] is higher in melting point: 182 to 184 °C for the first, 216 to 217 °C for the second.

First: COc1ccc(-c2nc(-c3ccc(Cl)cc3)c(CCC(N)=O)o2)cc1 [Example 28, 3-[4-(4-chlorophenyl)-2-(4-methoxyphenyl)-5-oxazolyl]propionamide]
Second: COc1ccc(NC(=O)CCc2oc(-n3cnc4ccccc43)nc2-c2ccc(Cl)cc2)cc1 [Example 114, 3-[2-(1H-benzimidazol-1-yl)-4-(4-chlorophenyl)-5-oxazolyl]-N-(4-methoxyphenyl)propionamide]
The melting point of the first is lower: 215 to 216 °C for the first, 240 to 241 °C for the second.

First: N#CCc1ccccc1NC(=O)CCc1oc(-n2cnc3ccccc32)nc1-c1ccc(Cl)cc1 [Example 111, 3-[2-(1H-benzimidazol-1-yl)-4-(4-chlorophenyl)-5-oxazolyl]-N-[2-(cyanomethyl)phenyl]propionamide]
Second: CNS(=O)(=O)Cc1ccc(NC(=O)CCc2oc(-n3ccnc3)nc2-c2ccc(Cl)cc2)cc1 [Example 44, 3-[2-(1H-imidazol-1-yl)-4-(4-chlorophenyl)-5-oxazolyl]-N-(4-{[(methylamino)sulfonyl]methyl}phenyl)propionamide]
The melting point of the first is higher: 235 to 236 °C for the first, 224 to 225 °C for the second.
